In patent publication US9763445B2, “Safened herbicidal compositions comprising a pyridine carboxylic acid herbicide” (Dow AgroSciences, LLC, priority 2014, dated 2017):

Assays:
[1] = tested on: spring wheat (TRZAS); assay: Postemergence greenhouse trial, % visual injury on spring wheat; assay type: in vivo, Triticum aestivum
Procedure, shortened: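 Injury was scored visually (0 = none, 100 = complete kill) 20–22 d after track-sprayer application at 187 L/ha, compared with solvent-sprayed controls. Test plants at the 2–3 true leaf stage; herbicide (g ae/ha) plus cloquintocet-mexyl safener (g ai/ha) in crop-oil-containing spray; expected mixture response by Colby.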

[2] = tested on: winter rape (BRSNW); assay: Postemergence greenhouse trial, % visual injury on winter rape; assay type: in vivo, Brassica napus; conditions: for % visual injury, Ob: BRSNW
Procedure, shortened: (§1)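 Visual injury, 0 (none) to 100 (complete kill), rated 20-22 d after overhead track-sprayer application at 187 L/ha; Colby's equation gave expected mixture responses. Herbicide (g ae/ha) and cloquintocet-mexyl safener (g ai/ha) diluted in aqueous 1.5% v/v Agri-dex, applied to weeds at 2–3 true leaves.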

[3] = tested on: lambsquarters (CHEAL); assay: Postemergence greenhouse trial, % visual injury on lambsquarters; assay type: in vivo, Chenopodium album; conditions: CHEAL
Procedure, shortened: as §1

CCCCCC(C)OC(=O)COc1ccc(Cl)c2cccnc12 (stereo not shown) [CQC-m, cloquintocet-mexyl, reference compound]
0%: % visual injury, Ob ([1]; TRZAS, 4.375 g/ha, applied alone) | % visual injury, Ob ([1]; TRZAS, 8.75 g/ha, applied alone) | % visual injury, Ob ([1]; TRZAS, 17.5 g/ha, applied alone) | % visual injury, Ob ([1]; TRZAS, 35 g/ha, applied alone) | % visual injury, Ob ([1]; TRZAS, 70 g/ha, applied alone) | % visual injury, Ob ([1]; TRZAS, compound 0, CQC-m 4.375 g/ha) | % visual injury, Ob ([1]; TRZAS, compound 0, CQC-m 8.75 g/ha) | % visual injury, Ob ([1]; TRZAS, compound 0, CQC-m 17.5 g/ha) | % visual injury, Ob ([1]; TRZAS, compound 0, CQC-m 35 g/ha) | % visual injury, Ob ([1]; TRZAS, compound 0, CQC-m 70 g/ha) | % visual injury, Ob ([1]; TRZAS, compound 0 g/ha, CQC-m 4.375 g/ha) | % visual injury, Ob ([1]; TRZAS, compound 0 g/ha, CQC-m 8.75 g/ha) | % visual injury, Ob ([1]; TRZAS, compound 0 g/ha, CQC-m 17.5 g/ha) | % visual injury, Ob ([1]; TRZAS, compound 0 g/ha, CQC-m 35 g/ha) | % visual injury, Ob ([1]; TRZAS, compound 0 g/ha, CQC-m 70 g/ha) | % visual injury, observed (Ob) ([1]; TRZAS, compound 8 0 + CQC-m 4.375 g/ha) | % visual injury, observed (Ob) ([1]; TRZAS, compound 8 0 + CQC-m 8.75 g/ha) | % visual injury, observed (Ob) ([1]; TRZAS, compound 8 0 + CQC-m 17.5 g/ha) | % visual injury, observed (Ob) ([1]; TRZAS, compound 8 0 + CQC-m 35 g/ha) | % visual injury, observed (Ob) ([1]; TRZAS, compound 8 0 + CQC-m 70 g/ha) | % visual injury, Ob ([1]; alone, 4.375 g/ha) | % visual injury, Ob ([1]; alone, 8.75 g/ha) | % visual injury, Ob ([1]; alone, 17.5 g/ha) | % visual injury, Ob ([1]; alone, 20 g/ha) | % visual injury, Ob ([1]; alone, 35 g/ha) | % visual injury, Ob ([1]; alone, 40 g/ha) | % visual injury, Ob ([1]; alone, 70 g/ha) | % visual injury, Ob ([1]; alone, 80 g/ha) | % visual injury, Ob ([2]; 4.375 g/ha, applied alone) | % visual injury, Ob ([2]; 8.75 g/ha, applied alone) | % visual injury, Ob ([2]; 17.5 g/ha, applied alone) | % visual injury, Ob ([2]; 35 g/ha, applied alone) | % visual injury, Ob ([2]; 70 g/ha, applied alone) | % visual injury, Ob ([2]; compound 0, CQC-m 4.375 g/ha) | % visual injury, Ob ([2]; compound 0, CQC-m 8.75 g/ha) | % visual injury, Ob ([2]; compound 0, CQC-m 17.5 g/ha) | % visual injury, Ob ([2]; compound 0, CQC-m 35 g/ha) | % visual injury, Ob ([2]; compound 0, CQC-m 70 g/ha) | % visual injury, Ob ([2]; compound 0 g/ha, CQC-m 4.375 g/ha) | % visual injury, Ob ([2]; compound 0 g/ha, CQC-m 8.75 g/ha) | % visual injury, Ob ([2]; compound 0 g/ha, CQC-m 17.5 g/ha) | % visual injury, Ob ([2]; compound 0 g/ha, CQC-m 35 g/ha) | % visual injury, Ob ([2]; compound 0 g/ha, CQC-m 70 g/ha) | plant injury at 4.375 g/ha ([2]; Brassica napus, post-emergence, alone, 4.375 g/ha, read-out: % visual injury, Ob) | plant injury at 8.75 g/ha ([2]; Brassica napus, post-emergence, alone, 8.75 g/ha, read-out: % visual injury, Ob) | plant injury at 17.5 g/ha ([2]; Brassica napus, post-emergence, alone, 17.5 g/ha, read-out: % visual injury, Ob) | plant injury at 35 g/ha ([2]; Brassica napus, post-emergence, alone, 35 g/ha, read-out: % visual injury, Ob) | plant injury at 70 g/ha ([2]; Brassica napus, post-emergence, alone, 70 g/ha, read-out: % visual injury, Ob) | % visual injury, Ob ([3]; 4.375 g/ha, applied alone) | % visual injury, Ob ([3]; 8.75 g/ha, applied alone) | % visual injury, Ob ([3]; 17.5 g/ha, applied alone) | % visual injury, Ob ([3]; 35 g/ha, applied alone) | % visual injury, Ob ([3]; 70 g/ha, applied alone) | % visual injury, Ob ([3]; compound 0, CQC-m 4.375 g/ha) | % visual injury, Ob ([3]; compound 0, CQC-m 8.75 g/ha) | % visual injury, Ob ([3]; compound 0, CQC-m 17.5 g/ha) | % visual injury, Ob ([3]; compound 0, CQC-m 35 g/ha) | % visual injury, Ob ([3]; compound 0, CQC-m 70 g/ha)
